Among the data in US20110183958A1, “AZETIDINE DERIVATIVES AS INHIBITORS OF STEAROYL-COENZYME A DELTA-9 DESATURASE” (Merck Frosst Canada Ltd., priority 2008, published 2011) are IC50 values, retold here.

The target of the assay is T1, human SCD1 (hSCD-1) (Homo sapiens, UniProt O00767).
T1 construct: made in house; host or cells: baculovirus/Sf9
T1 sequence (O00767 1-359): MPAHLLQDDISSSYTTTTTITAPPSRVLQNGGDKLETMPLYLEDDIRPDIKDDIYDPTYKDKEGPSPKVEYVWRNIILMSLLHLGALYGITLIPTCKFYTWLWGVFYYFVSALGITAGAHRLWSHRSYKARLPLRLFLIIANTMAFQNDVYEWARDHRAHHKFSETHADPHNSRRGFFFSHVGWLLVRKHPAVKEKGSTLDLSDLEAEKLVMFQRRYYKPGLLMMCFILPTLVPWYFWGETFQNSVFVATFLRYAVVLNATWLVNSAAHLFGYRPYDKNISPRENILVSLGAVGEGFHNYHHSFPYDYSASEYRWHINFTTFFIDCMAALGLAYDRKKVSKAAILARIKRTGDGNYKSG
Description: SCD enzyme activity assay with reconstituted human SCD1 (hSCD-1). The format is biochemical. The protocol:
I. SCD Enzyme Activity Assay:
The potency of compounds of formula I against the stearoyl-CoA desaturase was determined by measuring the conversion of radiolabeled stearoyl-CoA to oleoyl-CoA using rat liver microsome or human SCD1 (hSCD-1) following previously published procedures with some modifications (Joshi, et al., J. Lipid Res., 18: 32-36 (1977); Talamo, et al., Anal. Biochem, 29: 300-304 (1969)). Liver microsome was prepared from male Wistar or Sprague Dawley rats on a high carbohydrate diet for 3 days (LabDiet # 5803, Purina). The livers were homogenized (1:10 w/v) in a buffer containing 250 mM sucrose, 1 mM EDTA, 5 mM DTT and 50 mM Tris-HCl (pH 7.5). After a 100,000×g centrifugation for […], the liver microsome pellet was suspended in a buffer containing 100 mM sodium phosphate, 20% glycerol, 2 mM DTT, and stored at −78° C. Human SCD1 desaturase system was reconstituted using human SCD1 from a baculovirus/Sf9 expression system, cytochrome B5 and cytochrome B5 reductase. Typically, test compound in 2 μL DMSO was incubated for 15 min at room temperature with 180 μL of the SCD enzyme in a buffer containing 100 mM Tris-HCl (pH 7.5), ATP (5 mM), Coenzyme-A (0.1 mM), Triton X-100 (0.5 mM) and NADH (2 mM). The reaction was initiated by the addition of 20 μL of [^3H]-stearoyl-CoA (final concentration=2 μM, radioactivity concentration=1 μCi/mL). After 10 min, the reaction mixture (80 μL) was mixed with a calcium chloride/charcoal aqueous suspension (100 μL, charcoal (10% w/v) plus 25 μL, CaCl2 (2N). After centrifugation to precipitate the radioactive fatty acid species, tritiated water released from 9,10-[^3H]-stearoyl-CoA by the SCD enzyme was quantified on a scintillation counter.

`O=C(Nc1ccsc1)c1cnc(N2CC(Oc3cc(F)ccc3Br)C2)cn1`: inhibition was half-maximal at 24 nM (IC50). In the case of `COc1ccc(NC(=O)c2cnc(N3CC(Oc4cc(F)ccc4Br)C3)cn2)cc1` it was 9 nM. Consider `CNC(=O)c1cnc(N2CC(Oc3cc(F)ccc3Br)C2)cn1`, for which the half-maximal inhibitory concentration (IC50) (usually the concentration at which inhibition is half-maximal) stood at 45 nM. Compound `O=C(O)CCc1ccc(NC(=O)c2cnc(N3CC(Oc4cc(F)ccc4Br)C3)cn2)cc1` displayed a half-inhibitory concentration (IC50) of 45 nM. This counts as double-digit nanomolar.

`O=C(Nc1ccc2ccccc2c1)c1cnc(N2CC(Oc3cc(F)ccc3Br)C2)cn1` showed an IC50 of 23 nM. Take `O=C(Nc1ccc(-c2cc[nH]n2)cc1)c1cnc(N2CC(Oc3cc(F)ccc3Br)C2)cn1`: the IC50 is 16 nM.

On to `CS(=O)(=O)c1ccc(NC(=O)c2cnc(N3CC(Oc4cc(F)ccc4Br)C3)cn2)cc1`, for which the IC50 came to 11 nM.

In turn, `O=C(Nc1ccccc1)c1cnc(N2CC(Oc3cc(F)ccc3Br)C2)cn1` displayed an IC50 of 29 nM.
